Laboratory results: patent US4247702A, “Method of stabilizing 4-methyl-5-(2'chloroethyl)-thiazol” (Pharmaceutical Licences Company Ltd., priority 1978, dated 1981)

Experiment: Chloride analysis of decomposition deposit of Clomethiazol-Base kept 7 days at 70° C.
Assay type: physicochemical
Conditions: deposit after 7 days at 70° C., washed with benzene
Procedure: Freshly distilled Clomethiazol-Base was kept for 7 days at 70° C., and the precipitated brown deposit (decomposition products) was washed with benzene and analyzed.

Cc1ncsc1CCCl [CMT-Base, 4-Methyl-5-(2'-Chlorethyl)-thiazol]
total chloride greater than the sum of free chloride and chloride of occluded CMT-Base and CMT-HCl (chloride surplus): 17%
